Data reported in PubChem BioAssay (NCI).
Values joined by “and” are separate entries in the source; they are usually repeats but may differ in a detail not shown here. Identical values can stand only once.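 The compound was tested at five concentrations on cells cultured in 96-well plates, with a 48-hour exposure period. GI50 = concentration required for 50% inhibition of growth. TGI is the concentration that stops growth completely.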

Legend:
Assay in all cases: DTP human tumour cell line panel, 48 h
UO-31 renal = system: UO-31 renal
XF 498 CNS = system: XF 498 CNS
LXFL 529 NSCLC = system: LXFL 529 NSCLC
DMS 114 small cell lung = system: DMS 114 small cell lung
SF-539 CNS = system: SF-539 CNS
SF-295 CNS = system: SF-295 CNS
SW-620 colon = system: SW-620 colon
NCI-H460 lung = system: NCI-H460 lung
DU-145 prostate = system: DU-145 prostate
HS 578T breast = system: HS 578T breast

Structure (SMILES) | TGI (UO-31 renal) | TGI (XF 498 CNS) [µM] | TGI (LXFL 529 NSCLC) [µM] | TGI (DMS 114 small cell lung) [µM] | TGI (SF-539 CNS) | TGI (SF-295 CNS) | TGI (SW-620 colon) | TGI (NCI-H460 lung) | GI50 (UO-31 renal) [µM] | TGI (DU-145 prostate) | GI50 (SF-539 CNS) | GI50 (SF-295 CNS) | GI50 (SW-620 colon) | TGI (HS 578T breast) [µM] | GI50 (NCI-H460 lung) | GI50 (DU-145 prostate) | GI50 (HS 578T breast) [µM]
O=C1C=CC2(CCC23C=CC(=O)O3)O1 (stereo not drawn) | > 100 µM | > 100 | > 100 | > 100 | > 100 µM | > 100 µM | > 100 µM | > 100 µM |  |  |  |  |  |  |  |  | 
C=C1C(=O)O[C@@H]2C[C@@]3(C)[C@H](O)CCC(=C)[C@@H]3C[C@H]12 | 23.2 µM | 9.74 | 12.8 | 42.2 | 23.6 µM | 27.2 µM | 11.7 µM | 19.7 µM |  |  |  |  |  |  |  |  | 
Cc1ccc(S(=O)(=O)Nc2ccccc2C(C)(C)C)cc1 | 47.3 µM | 44.8 | 78.1 | 60.4 | 33.9 µM | 32 µM | > 100 µM | 42.2 µM |  |  |  |  |  |  |  |  | 
O=C(Nc1ccccc1C(=O)NC(=O)c1ccccc1NC(=O)c1ccccc1)c1ccccc1 |  | 4.38 |  | 9.74 | 18.9 µM | 26.6 µM | 18.6 µM | 28.1 µM |  |  |  |  |  |  |  |  | 
O=C1C2C(C(=O)N1Cc1ccccc1)N(Cc1ccccc1)C(=O)N2Cc1ccccc1 (stereo not drawn) | > 100 µM | > 100 | > 100 | > 100 | > 100 µM | > 100 µM | > 100 µM | > 100 µM |  |  |  |  |  |  |  |  | 
O=C1OC(=O)c2c1nc1ccccc1c2-c1ccccc1 | > 100 µM |  | > 100 | > 100 | > 100 µM | > 100 µM | > 100 µM | > 100 µM |  |  |  |  |  |  |  |  | 
C#Cc1cccc(NC(=O)/C=C\C(=O)O)c1 | > 100 µM |  | > 100 |  |  | > 100 µM | > 100 µM | > 100 µM |  |  |  |  |  |  |  |  | 
CCCCCCCCCC1CC(=O)OC23CCCC(=O)C12O3 (stereo not drawn) | > 100 µM | > 100 | > 100 | > 100 | > 100 µM | > 100 µM | > 100 µM | > 100 µM |  |  |  |  |  |  |  |  | 
O=[N+]([O-])c1cccnc1S(=O)(=O)c1ccccc1 | 14 µM | 25.8 | 5.87 | 8.53 | 24 µM | 32.5 µM | 8.38 µM | 27.8 µM |  |  |  |  |  |  |  |  | 
CC(C)N(C(=O)C12C3C4C1C1C4(C#N)C3C12C(=O)O)C(C)C (stereo not drawn) | > 100 µM | > 100 | > 100 | > 100 | > 100 µM | > 100 µM | > 100 µM | > 100 µM |  |  |  |  |  |  |  |  | 
N#Cc1c(-c2ccccc2)c(-c2ccccc2)cc2c(=O)c3ccc(Cl)cc3[nH]c12 | > 100 µM | > 100 | > 100 |  | > 100 µM | > 100 µM | > 100 µM | > 100 µM |  |  |  |  |  |  |  |  | 
N#Cc1ccccc1Sc1ccccc1N | > 100 µM | > 100 | > 100 | > 100 | > 100 µM | > 100 µM | > 100 µM | > 100 µM |  |  |  |  |  |  |  |  | 
O=C1C=CC2(O)OCC3C=C4O[C@@H]5OC6(CCCCC6)O[C@@H]5C4[C@@H]2[C@@H]13 (stereo partly drawn) | 37.3 µM | 72.6 | 29.7 | 69.2 |  | > 100 µM | 71.4 µM | > 100 µM |  |  |  |  |  |  |  |  | 
C/C(=N\NC(=S)N1CCC1)c1ccccn1 | 15.3 µM | > 100 | > 100 |  | 5.31 µM | 49.2 µM | > 100 µM | 6.33 µM | 0.0188 | > 100 µM | 0.0629 µM | 0.0285 µM | 0.0367 µM | > 100 | 0.07 µM |  | 
COc1ccc(-c2cnc(-c3ccncc3-c3cccc(OC)c3)o2)cc1 | 14.2 µM |  |  |  | 0.0776 µM | 13.8 µM | 19.3 µM | 4.03 µM | 0.0896 | 12.9 µM | 0.0268 µM | 0.0294 µM | 0.0383 µM | 20.2 | 0.0365 µM | 0.0408 µM | 0.0354
O=C(O)c1ccccc1C(=O)c1ccco1 | > 100 µM | > 100 |  | > 100 | > 100 µM | > 100 µM | > 100 µM | > 100 µM |  |  |  |  |  |  |  |  | 
Nc1nc(Cl)c2ncn(Cc3ccc(C45CC6CC(CC(C6)C4)C5)c(OCc4cc(F)c(F)cc4F)c3)c2n1 | 19.4 µM |  |  |  | 14.8 µM | 17.1 µM | 20.5 µM | 5.89 µM | 4.54 | 15.7 µM | 4.18 µM | 3.44 µM | 2.14 µM | 71.3 | 2.39 µM | 4.08 µM | 12.1
CN(C)CCCOc1ccc(NC2=C(Cl)C(=O)C(Nc3ccc(OCCCN(C)C)cc3)=C(Cl)C2=O)cc1 | 2.44 µM |  |  |  | 3.19 µM | 3.19 µM | 0.809 µM | 2.55 µM | 1.1 | 1.13 µM | 1.79 µM | 1.67 µM | 0.297 µM | 4.2 | 0.872 µM | 0.563 µM | 1.59
O=[N+]([O-])/C=C/c1ccc2ccccc2c1 | 35.1 µM |  |  |  | > 100 µM | 19.4 µM | 3.99 µM | > 23.5 µM |  | > 35.9 µM |  |  |  | > 61.8 |  |  | 
CCN(CC)CCNc1n[n+]([O-])c2cc([N+](=O)[O-])ccc2[n+]1[O-] | 15.3 µM and 10.8 µM and 10.9 µM |  |  |  | 2.57 µM and 1.36 µM and 1.38 µM | 1.95 µM and 3.08 µM and 2.64 µM | 3.14 µM and 2.45 µM and 2.33 µM | 1.63 µM and 1.16 µM and 1.28 µM |  | 6.15 µM and 3.57 µM and 3.16 µM | 0.809 µM and 0.402 µM and 0.355 µM | 0.253 µM and 0.447 µM and 0.186 µM | 0.737 µM and 0.304 µM and 0.238 µM | 54.2 | 0.264 µM and 0.0353 µM and 0.0939 µM | 1.2 µM and 0.63 µM and 0.578 µM | 
NC1=NC(c2ccccc2Cl)c2c(n[nH]c2N)N1 (stereo not drawn) | > 100 µM |  |  |  | > 100 µM | > 100 µM | > 100 µM | > 100 µM | 9.21 | > 100 µM | 57 µM | 16.7 µM | 18.9 µM | > 100 | 5.9 µM | 61 µM | > 100
Cc1ccc(C(=O)Nc2ccc(Oc3cc4cnn(C)c4cc3-c3cn[nH]c3)c(F)c2)c(=O)n1-c1ccc(F)cc1 | > 100 µM |  |  |  | > 100 µM | > 100 µM | > 100 µM | > 100 µM | > 100 | > 100 µM | 1.37 µM | 0.0856 µM | > 88.9 µM | > 100 | 8.12 µM | > 50 µM | 7.35
COS(=O)c1cc(Cl)cc(Cl)c1OC(=O)CSSCC(=O)Oc1c(Cl)cc(Cl)cc1S(=O)OC (stereo not drawn) | 60 µM |  | 47.6 | 35.3 | 47.6 µM | 67.5 µM | 58.4 µM | 55.5 µM |  |  |  |  |  |  |  |  | 
